Reference: a melting point compilation (Tetko et al.; mined from patent text by program, amines drawn as free bases though some values may be those of a salt)

Compound	melting point [°C]
CC(C)(C)c1cc(C(O)C#Cc2ccc(C(=O)O)cc2)ccc1N1CCCCC1 (stereo unspecified)	112
COC(=O)C(=O)Nc1cc(OCCCOc2ccc(C(C)=O)c(O)c2CCC(F)(F)F)c(Br)cc1C	139 to 140
CCOCCOc1ccc(-c2ccc3c(c2)C=C(C(=O)Nc2ccc(CN(C)C4CCOCC4)cc2)CCS3(=O)=O)cc1OCCOCC	150 to 151
CC(CF)(CF)C(=O)C(Oc1ccc(Cl)cc1)n1cnnc1 (stereo unspecified)	119 to 122
O=C(O)C=NNc1ccc(C(F)(F)F)cc1	125
CS(=O)(=O)c1ccc(-c2cc(CO[N+](=O)[O-])nn2CC2CCCCC2)cc1	98 to 99
CCOC(=O)C1=C2NCCN2C(C)=C(C(=O)OC)C1c1ccccc1[N+](=O)[O-] (stereo unspecified)	185
O=c1cc(-c2ccc(O)cc2)oc2ccncc12	306 to 308
Cc1sc2c(c1CCN1CCC(c3noc4cc(F)ccc34)CC1)CCN(C)C2	100 to 103
CCNC(=S)C1=CC(CF)(CF)Oc2ccc(C(F)(F)F)cc21	65 to 67
COc1ccc(Nc2ccc(OCc3ccccc3)cc2)c(C(C)=O)c1	80 to 81.5
O=C(C[C@@H](CCc1ccccc1)C(=O)O)OCC(Cl)(Cl)Cl	59 to 61
O=C1NC(=O)C(Cc2ccc(OCCON=Cc3ccc(-c4ccccc4)cc3)cc2)S1 (stereo unspecified)	124 to 127
CC(C)(C)c1ccn(-c2ccc(C(=O)N3Cc4cccnc4Nc4ccccc43)c(C(F)(F)F)c2)n1	136 to 140
CC1(C)CN(C2CC3(C)C(CCC4C5CCC(C#N)C5(C)CCC43)CC2O)CCO1 (stereo unspecified)	170 to 173
COc1cc(Nc2c(C#N)cnc3cc(-c4cc5ccccc5o4)sc23)c(Cl)cc1Cl	281 to 282
COc1ccc(N(CCN2CCC(C(=O)c3ccc(F)cc3)CC2)C(=O)c2ccc([N+](=O)[O-])cc2)c(OC)c1	51 to 54
CCc1cc(C(=O)c2ccccc2Cl)c(-n2c(C)nnc2CNC(=O)c2cc3ccccc3n2CC(=O)O)s1	208 to 210
COc1cc(C(=O)c2nc(NC(C)=O)c3ccccn23)ccc1[N+](=O)[O-]	256
CC(=O)c1c2c(cc3c1CCC3)CCC2	69.1 to 76.1
N#Cc1ccc(C2CCN(Cc3ccccc3)C2)cc1 (stereo unspecified)	78 to 79
CC(=O)OC(CCl)c1cccnc1S(N)(=O)=O (stereo unspecified)	146 to 147
Cn1c(C(=O)O)cc2c3c(c(-c4ccccc4Cl)cc21)C(=O)NC3=O	301 to 302
Fc1ccc(Nc2ncnc3ccc(-c4cccs4)cc23)cc1Cl	205 to 208

Compound	melting point [°C]
CC(C)(C)CC(C)(C)c1ccc(C(=O)O)cc1	153 to 155
CCNC(=O)c1c(Cl)cc(C(C)(C)C)cc1[Si](C)(C)C	124 to 126
CC(=O)C(=Cc1cccc([N+](=O)[O-])c1)C(=O)OCCCl	95 to 97
CC1CCC(Nc2c(C#N)c3ccccc3n2C)=CC1=O (stereo unspecified)	194 to 195
CCOC(=O)/C(F)=C/c1ccc(N2C[C@H](CNC(C)=O)OC2=O)cc1	161 to 163
COc1cc(CC2SC(=O)NC2=O)ccc1OCCN1c2ccccc2Sc2ccccc21 (stereo unspecified)	46 to 48
O=c1[nH]c2cc(C(F)(F)F)ccc2n(CCn2ncnn2)c1=O	280
CCCCCCCCCCCCCCCC(=O)N[C@@H](Cc1ccc(O)cc1)C(=O)OC	100
CCOC(=O)c1cn(-c2cc(NC(=O)OCc3ccccc3)c(F)cc2F)c2cc(F)c(F)c(C)c2c1=O	202 to 204
CCCCCCCCCCCCc1c(C)[nH]c(C(=O)OCC)c1C	65 to 67
COC(=O)CCCCCCCCCC1=C(C)C(=O)C(OC)=C(OC)C1=O	37 to 38
O=C1CC(C2CCCC2)CN1 (stereo unspecified)	117 to 119
CN1CCN(C2=C3CSCC34CC(=CC#N)C=CC4=NC=C2)CC1 (stereo unspecified)	90 to 92
N#CCc1ccc(NC(=O)OCc2cccnc2)cc1	157 to 162
CC(C)(C)OC(=O)NC1CCN(c2ccc(C(=O)O)cc2)CC1	> 300
Cc1cn2cc(NC(=O)c3cc4cc(F)ccc4n3Cc3cccc(F)c3)ccc2n1	200 to 203
CCCn1cc(-c2c(-c3ccccc3F)nn3ccncc23)ccc1=O	127 to 128
COc1ccc(-c2cc3oc(=O)c4ccccc4c3nn2)cc1	270
Nc1cc(-c2ccccc2)cc2ccccc12	103
COc1cc2c(c(OC)c1OC)CC(N1CCC(n3c(=O)[nH]c4ccccc43)CC1)C2=O (stereo unspecified)	197 to 199
CC1=C(c2ccc(C(=O)N3Cc4cccn4Cc4ccccc43)cc2)CCCC1	119 to 120
CC(C)(OC(=O)C1C2CCC(C2)C1C(F)(F)F)C(F)(F)F (stereo unspecified)	87 to 90
COc1cc(OC)nc(C(CC(=O)C(C)(C)C)C(=O)NS(C)(=O)=O)n1 (stereo unspecified)	97 to 98
Cc1ccc(CC#N)c(OCc2ccc(OCc3nc(-c4ccccc4)oc3C)cc2)n1	122 to 123

Compound	melting point [°C]
CCCOc1ccc(S(=O)(=O)Nc2ccc3[nH]ncc3c2)cc1-c1nc2cc(Cl)c([N+](=O)[O-])cc2c(=O)[nH]1	261 to 263
Cc1c(N2CCc3c(-c4ccccc4)cccc32)nc2ccc(F)cc2c1C(=O)O	157 to 159
CN(CCOCCO)S(=O)(=O)c1ccc(NC=C2C(=O)Nc3ccc4ncsc4c32)cc1	165
CC(C)C[C@H](N[C@H](CCN1C(=O)c2cc3ccccc3cc2C1=O)C(=O)OC(C)(C)C)C(=O)O	168 to 169
CCCCCCCCCCCCCCCCCC(=O)NCCS	63 to 65
CCCCCC1CCC(c2ccc(CC(=O)OC)cc2)CC1 (stereo unspecified)	46 to 47
CCCc1ccc(-c2nnc(SC)nn2)cc1	78 to 79
Cc1ccccc1N1CCN(CC(O)COc2cccc3c2CCCC3=O)CC1 (stereo unspecified)	183 to 184
CS(=O)(=O)N1CCN(c2ccc(O)cc2)CC1	205
Nc1c(Cl)cnnc1Cl	176 to 178
COc1cccc2c1oc1c(N)n(C)nc12	186 to 188
CN1C(=O)CN=C(c2ccccc2F)c2cc(NC(=O)N3CCSC3)ccc21	185
CCOC(=O)c1ccc(C=C(C)C)c(OC)c1	42
COC(=O)C=Cc1ccc(OCCCCl)cc1	58 to 59
CC(C)(CO)CCCCN1C(=O)c2ccccc2C1=O	74.8 to 75
CN(C)c1cc(-c2c[nH]c(N)n2)ccn1	> 270
Cc1cc(C)nc(N(CSC(=S)N2CCCC2)C(=O)NS(=O)(=O)c2ccccc2Cl)n1	131 to 133
CSC1=C(c2ccc(O)cc2)C(=O)c2ccc(O)cc21	108 to 110
Nc1ccc(-c2nc(Cc3ccccc3)no2)cc1Br	144 to 145
O=C(c1ccc(F)cc1)C1CCN(CCCn2c(=O)[nH]c3cc(Cl)c(Cl)cc32)CC1	198 to 202
CC(=O)Nc1ccc(SSc2ccc(NC(C)=O)cc2C(=O)NC(CC(C)C)C(=O)O)c(C(=O)NC(CC(C)C)C(=O)O)c1 (stereo unspecified)	241 to 242
CCOC(=O)/C(=C\Nc1ccc(OC)c(OC)c1)c1ccc(OC)cc1	88 to 89
NC(=O)C1N=C(c2ccccc2)c2cc(Cl)ccc2NC1=O (stereo unspecified)	255 to 256
